Tested on: RAW-Blue cells
Test: Inverse RAW-Blue assay after conversion by α-Mannosidase or AT3B-1 cells
Type: cell-based
Experimental: α-Mannosidase from Canavalia ensiformis (Jack bean) was used directly from the bottle to make a 1 U/mL stock solution in DPBS. Before administering the enzyme, the solution was filtered through a sterile 0.2 μm syringe filter to yield the working stock solution. 20 μL of the working stock solution was added to wells requiring exogenous enzyme to achieve a 0.1 U/mL α-Mannosidase concentration.
For inverse RAW-Blue assays, pro-immunostimulant (12) was first converted to Imiquimod by either exogenous α-Mannosidase (0.1 U/well) or via AT3B-1 cell metabolism prior to RAW-Blue exposure. To accomplish this, pro-immunostimulant (12) and controls were dosed at a concentration 10× the desired concentration to be administered to immune cells. For instance, to investigate the effects on RAW-Blue stimulation of a 10 μM dose of pro-immunostimulant […] the following steps would be taken: First, in an optically clear bottomed 96-well plate, wells were prepared to contain 180 μL of complete AT3B-1 cell media (without doxorubicin) and either α-Mannosidase or the desired AT3B-1 cell density (cells were given a minimum of 60 mins to adhere). Second, a 100 μM dose of (12) in DPBS was administered to the wells and total well volumes were adjusted to 200 μL with complete cell media (without doxorubicin). Cells were incubated (37° C., 5% CO2) for 24-72 h. […]

Q: What does the source list for `CC(C)Cn1cnc2c(NC(=O)OCc3ccc(O[C@H]4O[C@H](CO)[C@@H](O)[C@H](O)[C@@H]4O)c([N+](=O)[O-])c3)nc3ccccc3c21` [compound 12]?
A: immunogenicity (RAW-Blue activation) (10 μM, exogenous α-Mannosidase and AT3B-1 driven conversion to Imiquimod): confers immunogenicity; RAW-Blue activity (without a conversion driver): abrogated activity

From patent US11117918B2, “Enzyme-directed immunostimulant and uses thereof” (Washington State University, priority 2016, dated 2021)
